This test is described as follows: concentration series on yeast TOR reporter LAP4 – cell-based, MLPCN hits, flow cytometry, dose response (AID 2745).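 Further: yeast exposed to compound for three hours at 30 degrees.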 Particulars: S. cerevisiae LAP4-GFP reporter, flow cytometry fluorescence; at 33 µM (top of the series). (In flow cytometry, cells or beads pass a laser one at a time.)

SMILES strings stand for the structures. Activity calls are given as the source filed them. How the calls were made is not given here.

For the molecule `O=C1N(c2ccccc2C(F)(F)F)O[C@]1(c1ccccc1)C1CCCC1`, the LAP4-GFP fluorescence (kMESF) is 3.98 kMESF (inactive). Turning to `CCOc1cc(C=C2C(=O)c3ccccc3C2=O)ccc1OCC(=O)Nc1ccc(C)cc1`, the LAP4-GFP fluorescence (kMESF) is 3.87 kMESF (inactive).

In the case of `Cc1ccc(C(=O)Oc2oc(-c3ccccc3)nc2C=Nc2ccc(N(C)C)cc2)cc1`, the LAP4-GFP fluorescence (kMESF) was 6.02 kMESF (inactive). In the case of `CC(=O)n1cc(C(C[N+](=O)[O-])SCCN)c2ccccc21` (stereo not given), the LAP4-GFP fluorescence (kMESF) was 4.35 kMESF (inactive). `O=C(/C=C/c1ccccc1[N+](=O)[O-])c1ccccc1Br`: the LAP4-GFP fluorescence (kMESF) is 15.6 kMESF (inactive). The value for `Oc1c(CN2CCN(c3ccccc3)CC2)cc(Br)c2cccnc12` was 20.9 kMESF (inactive); that for `CCCc1cc(=O)oc2cc(C)cc(OCC(=O)NC3CC3)c12` was 3.74 kMESF (inactive). Regarding `O=[N+]([O-])c1ccc(S(=O)(=O)c2ccccc2)nc1`, the LAP4-GFP fluorescence (kMESF) was 9.63 kMESF (inactive). For the molecule `O=[N+]([O-])c1c(Nc2ccccn2)cc(Cl)c2nonc12`, the LAP4-GFP fluorescence (kMESF) was 36.2 kMESF (inactive). In the case of `O=C(/C=C/c1ccccc1)c1cc(Br)ccc(=O)c1O` it was -10.1 kMESF (inactive); in that of `CC(C)(C)c1cc(C(c2cccnc2)N2CCN(CCO)CC2)cc(C(C)(C)C)c1O` (stereo not given), 7.26 kMESF (inactive); in that of `CCOc1ccccc1/C=c1\sc2ncnn2c1=O`, 19 kMESF (inactive). The value for `CCN(CC)c1ccc2cc(-c3nc4ccccc4[nH]3)c(=O)oc2c1` was 3.03 kMESF (inactive); that for `C[C@@]12C(=O)OC(=O)[C@]1(C)C1CCC2O1` was 9.15 kMESF (inactive). In the case of `O=C(NC(=S)NNC(=O)c1ccc(Cl)cc1Cl)c1cccnc1` it was 4.37 kMESF (inactive); in that of `CN(c1ccccc1)c1ccc(/C=c2\s/c(=C(/C#N)C(=O)C(C)(C)C)n(Cc3ccco3)c2=O)cc1`, 10.4 kMESF (inactive); in that of `CCC(=O)Nc1ccc(NC(=O)c2cc3ccccc3o2)c(OC)c1`, 3.41 kMESF (inactive).

Consider `Cc1[nH][nH]c(=O)c1C(c1ccc(-c2ccc(Cl)cc2)o1)c1c(C)[nH][nH]c1=O`, for which the LAP4-GFP fluorescence (kMESF) is 6.67 kMESF (inactive). The value for `N/C(=N\OC(=O)c1cccc(Br)c1)c1ccccc1` was 4.51 kMESF (inactive); that for `COc1cccc(/C=C2\C(=O)N(c3cccc(C)c3)C(=O)c3ccccc32)c1` was 9.02 kMESF (inactive). `CN1C(=O)/C(=N\OC(=O)c2cccc3ccccc23)c2ccccc21`: the LAP4-GFP fluorescence (kMESF) was 7.11 kMESF (inactive).

For the molecule `Nc1ccc2ccc3cccc[n+]3c2c1`, the LAP4-GFP fluorescence (kMESF) is 10.3 kMESF (inactive). In the case of `O/C=c1\ccc2cccc3nc(C(F)(F)F)nc1c23` it was 15.8 kMESF (inactive). The value for `COc1cc(/C=C2/C(=O)ON=C2c2ccccc2)ccc1O` was 9.39 kMESF (inactive); that for `C=CCN1C(=O)/C(=C/c2cccs2)C(=O)NC1=S` was 4.47 kMESF (inactive); that for `COc1ccccc1C(=O)NNC(=S)NC(=O)c1cccs1` was 6.21 kMESF (inactive). The value for `Cc1c(NC2=C(Cl)C(=O)N(c3ccccc3Cl)C2=O)c(=O)n(-c2ccccc2)n1C` was 3.78 kMESF (inactive); that for `Cc1c(NC2=C(Cl)C(=O)N(c3ccccc3)C2=O)c(=O)n(-c2ccccc2)n1C` was 6.71 kMESF (inactive). As for `Clc1cnc(N/N=C/c2cccs2)c(Cl)c1`, the LAP4-GFP fluorescence (kMESF) is 6.2 kMESF (inactive). The value for `O=C1C=C(Nc2ccc(Cl)cc2)C(=O)N1c1ccc(Cl)cc1` was 3.03 kMESF (inactive).

For `CCN1/C(=C/c2ccc3cc(C)ccc3[n+]2CC)Sc2ccc3sccc3c21`, the LAP4-GFP fluorescence (kMESF) was 10.7 kMESF (inactive). In the case of `CC1=C/C(=N\OS(=O)(=O)c2ccccc2)C(C)=CC1=O` it was 4.1 kMESF (inactive); in that of `Oc1ccc2ccccc2c1/C=N/Nc1nnc(-c2ncc[nH]2)c2ccccc12`, -7.45 kMESF (inactive); in that of `COc1ccc(C(=O)/C=C2/C(=O)Nc3ccccc32)cc1OC`, 4.19 kMESF (inactive). In the case of `CC(Oc1ccc2ccccc2c1)C(=O)NNC(=S)NC(=O)c1ccco1` (stereo not given) it was 13.9 kMESF (inactive).

`NC(=O)COc1ccc(C(=O)/C=C2/C(=O)Nc3ccccc32)cc1`: the LAP4-GFP fluorescence (kMESF) is 6.78 kMESF (inactive). For the molecule `O=S(=O)(/N=C(/Sc1ccccc1)c1ccccc1)c1ccccc1`, the LAP4-GFP fluorescence (kMESF) is 11.4 kMESF (inactive). In the case of `O=[N+]([O-])c1cc(CN2CCN(c3ccccc3)CC2)c(O)c2ncccc12` it was 14.7 kMESF (inactive); in that of `CC(C)(C)C(=O)NC(=S)NNC(=O)c1sc2ccccc2c1Cl`, 8.89 kMESF (inactive). For `Oc1ccc(COCc2ccccc2)c2cccnc12`, the LAP4-GFP fluorescence (kMESF) is 20.4 kMESF (inactive). In the case of `COc1ccc(N=Cc2nc(-c3ccccc3)oc2OC(=O)c2ccccc2)cc1` it was 4.09 kMESF (inactive); in that of `O=C(NOC(=O)c1ccccc1)c1ccccc1`, 10.6 kMESF (inactive). On to `COc1cc(CNC(=O)CCCCCCC(C)C)ccc1O`, for which the LAP4-GFP fluorescence (kMESF) was 3.74 kMESF (inactive). In the case of `Oc1c(Br)cc(Br)cc1C=Nc1ccc2[nH]ncc2c1` it was 13.1 kMESF (inactive). In the case of `CC(C)CC(=O)NC(=S)Nc1nc(-c2ccccc2)cs1` it was 3.44 kMESF (inactive).

For the molecule `Cc1cc(NC(c2ccc(Cl)cc2)c2ccc3cccnc3c2O)no1` (stereo not given), the LAP4-GFP fluorescence (kMESF) was 11.2 kMESF (inactive). In the case of `CC(C)[C@]1(c2ccccc2)ON(c2ccccc2C(F)(F)F)C1=O` it was 2.53 kMESF (inactive); in that of `COc1cc(C=C2C(=O)c3ccccc3C2=O)cc(OC)c1OC`, 4.04 kMESF (inactive). In the case of `O=C1C(Cl)=C(N2CCN(Cc3ccccc3)CC2)C(=O)N1c1ccccc1` it was 4.11 kMESF (inactive); in that of `COc1ccc(C=C2C(=O)c3ccccc3C2=O)cc1O`, 3.24 kMESF (inactive).

As to `COc1cccc(N=Cc2nc(-c3ccccc3)oc2OC(C)=O)c1`, the LAP4-GFP fluorescence (kMESF) was 12.8 kMESF (inactive).

As to `CC(C)(C)C1C/C(=C/c2ccccn2)C(=O)/C(=C/c2ccccn2)C1` (stereo not given), the LAP4-GFP fluorescence (kMESF) is 4.25 kMESF (inactive). The value for `Cc1ccc2[nH]c(C)c(/C=C/c3cc[n+](C)cc3)c2c1` was 8.71 kMESF (inactive); that for `O=c1c2cc(Cl)ccc2nc(-c2ccc([N+](=O)[O-])cc2)n1O` was 5.26 kMESF (inactive); that for `O=C1c2cccc3c([N+](=O)[O-])ccc(c23)C(=O)N1O` was 3.64 kMESF (inactive). The value for `CC(C)Cn1c(=O)c(C(=O)Nc2ccncc2)c(O)c2ccccc21` was 2.36 kMESF (inactive); that for `N#Cc1c2ccc([N+](=O)[O-])cc2[n+]([O-])n1-c1ccccc1` was 4.85 kMESF (inactive).

Turning to `Oc1ccc(N=Nc2ccccc2)o1`, the LAP4-GFP fluorescence (kMESF) is 18.8 kMESF (inactive). In the case of `COC(=O)CCCC1=CC2=CC(=O)C(C)(OC(=O)CCc3ccccc3)C(=O)C2=CO1` (stereo not given) it was 3.13 kMESF (inactive).

Turning to `Cc1ccc(N2C(=O)CC(Sc3ncn[nH]3)C2=O)cc1C` (stereo not given), the LAP4-GFP fluorescence (kMESF) is 7.56 kMESF (inactive). In the case of `O=C(O)c1ccc2c(c1)C(=O)/C(=C/c1ccccc1)C2=O` it was 3.53 kMESF (inactive); in that of `COc1ccc(N2CCN(C(=O)c3ccccc3)CC2)c([N+](=O)[O-])c1`, 6.87 kMESF (inactive); in that of `Cc1nn2c(-c3ccncc3)nnc2c2ccccc12`, 3.34 kMESF (inactive). The value for `CCC(=O)Oc1oc(-c2ccccc2)nc1C=Nc1ccc(C)cc1` was 4.73 kMESF (inactive); that for `CC(=O)CSc1ncnc2c1cnn2-c1ccccc1` was 3.61 kMESF (inactive); that for `Cc1cccc(/C=C/C(=O)c2ccc([N+](=O)[O-])o2)c1` was 9.32 kMESF (inactive).

As for `Cc1ccnc(N2C(=O)c3cccc4c([N+](=O)[O-])ccc(c34)C2=O)c1`, the LAP4-GFP fluorescence (kMESF) is 33.2 kMESF (inactive). In the case of `CCN(CC)C(=S)SSC(=S)N(CC)CC` it was 20.4 kMESF (inactive); in that of `CCN(CC)c1ccc(/C=C2/C(=O)c3ccc(C(=O)O)cc3C2=O)cc1`, 13.8 kMESF (inactive). As to `COc1cc(C=C2C(=O)c3ccccc3C2=O)cc(OC)c1`, the LAP4-GFP fluorescence (kMESF) is 4.28 kMESF (inactive). The value for `COc1ccc(N2C(=O)C(Cl)=C(NCc3ccccc3)C2=O)cc1` was 6.61 kMESF (inactive). In the case of `O=C1C2C3C=CC(CO)(O3)C2C(=O)N1c1ccccc1-c1ccccc1` (stereo not given) it was 5.75 kMESF (inactive); in that of `CS(=O)(=O)c1sc(C#N)c2c1C(=O)CC(c1ccccc1)C2` (stereo not given), 14.6 kMESF (inactive); in that of `COc1cc(NC(=O)c2ccc(C)cc2)ccc1NC(=O)c1cc2ccccc2o1`, 3.61 kMESF (inactive).

For the molecule `N#C/C(=C\c1ccccn1)c1nc2ccccc2s1`, the LAP4-GFP fluorescence (kMESF) is 15.1 kMESF (inactive). In the case of `CN(C)C(=O)Oc1ccnc2cc(Cl)ccc12` it was 2.83 kMESF (inactive); in that of `Cc1ccc(/C=c2\sc3nc(-c4cccs4)nn3c2=O)o1`, 7.32 kMESF (inactive); in that of `O=c1[nH]c(-c2ccc(Cl)cc2)cs1`, 3.03 kMESF (inactive).

In the case of `CCOC(=O)C(C(=O)OCC)C(C(=O)OCC)N1CCOCC1` (stereo not given), the LAP4-GFP fluorescence (kMESF) is 6.39 kMESF (inactive). Turning to `Cc1cc(=O)oc2cc(Oc3ccc([N+](=O)[O-])cc3C(F)(F)F)ccc12`, the LAP4-GFP fluorescence (kMESF) was 3.64 kMESF (inactive).

The values are drawn from PubChem BioAssay AID2745 (NMMLSC, 2010).
